Earlier results as cited in PubChem BioAssay AID1259409 (Chemical Carcinogenesis Research Information System (CCRIS), 2018).

Tested on: rodent chemically induced tumor inhibition, incidence and multiplicity
Assay: CCRIS tumor inhibitor studies

Structure (SMILES): NCCCC(N)(C(=O)O)C(F)F (stereo not drawn)
- tumour outcome (control, treated, inhibition, significance) (Carcinogen: 1,2-DIMETHYLHYDRAZINE, 540-73-8, Dose [Inhibitor]: 0, 0.2% IN DRINKING WATER BEGINNING 1 D PRIOR TO CARCINOGEN TREATMENT AND CONTINUING FOR DURATION OF STUDY (STUDY DURATI, Route [Inhibitor]: ORAL, Species: RAT, Strain/Sex: SPRAGUE-DAWLEY/MALE, Target Tissue: Type of Lesion: DISTAL COLON: ADENOCARCINOMA, Dose [Carcinogen]: 20 MG/KG 1/WK FOR 20 WK, Promoter: NONE USED): 94%, 67%, 29%, p<0.01
- tumour outcome (control, treated, inhibition, significance) (Carcinogen: 7,12-DIMETHYLBENZ[A]ANTHRACENE, 57-97-6, Dose [Inhibitor]: 0.3 MG IN 0.2 ML ACETONE:ETHANOL:WATER (2:1:1, V/V) 1 HR AFTER EACH PROMOTER DOSE FOR 20 WK (STUDY DURATION: 20 WK), Route [Inhibitor]: DERMAL, Species: MOUSE, Strain/Sex: CD-1/FEMALE, Target Tissue: Type of Lesion: SKIN: PAPILLOMA, Dose [Carcinogen]: 0.2 UMOL IN 0.2 ML ACETONE ONCE, Promoter: 12-O-TETRADECANOYLPHORBOL-13-ACETATE, 16561-29-8): 97%, 61%, 37%, not calculated
- tumour outcome (control, treated, inhibition, significance) (Carcinogen: 7,12-DIMETHYLBENZ[A]ANTHRACENE, 57-97-6, Dose [Inhibitor]: 0.3 MG IN 0.2 ML ACETONE:ETHANOL:WATER (2:1:1,V/V) 1 HR AFTER EACH PROMOTER DOSE FOR 20 WK (STUDY DURATION: 20 WK), Route [Inhibitor]: DERMAL, Species: MOUSE, Strain/Sex: CD-1/FEMALE, Target Tissue: Type of Lesion: SKIN: PAPILLOMA, Dose [Carcinogen]: 0.2 UMOL IN 0.2 ML ACETONE ONCE, Promoter: 12-O-TETRADECANOYLPHORBOL-13-ACETATE, 16561-29-8): 84%, 63%, 25%, not calculated
- tumour outcome (control, treated, inhibition, significance) (Carcinogen: 7,12-DIMETHYLBENZ[A]ANTHRACENE, 57-97-6, Dose [Inhibitor]: 1% (W/V) IN DRINKING WATER 2 D PRIOR TO 1ST PROMOTER DOSE UNTIL THE END OF EXPERIMENT (STUDY DURATION: 20 WK), Route [Inhibitor]: ORAL, Species: MOUSE, Strain/Sex: CD-1/FEMALE, Target Tissue: Type of Lesion: SKIN: PAPILLOMA, Dose [Carcinogen]: 0.2 UMOL IN 0.2 ML ACETONE ONCE, Promoter: 12-O-TETRADECANOYLPHORBOL-13-ACETATE, 16561-29-8): 100%, 43%, 57%, not calculated
- tumour outcome (control, treated, inhibition, significance) (Carcinogen: 7,12-DIMETHYLBENZ[A]ANTHRACENE, 57-97-6, Dose [Inhibitor]: 2% IN DRINKING WATER (AVERAGE DAILY INTAKE: 8.53 ML/MOUSE/D) FOR 18 WK (STUDY DURATION: 18 WK), Route [Inhibitor]: ORAL, Species: MOUSE, Strain/Sex: SENCAR/FEMALE, Target Tissue: Type of Lesion: SKIN: PAPILLOMA, Dose [Carcinogen]: 10 NMOL ONCE AT 7 WK OF AGE, Promoter: 12-O-TETRADECANOYLPHORBOL-13-ACETATE, 16561-29-8): 92%, 81%, 12%, not calculated
- tumour outcome (control, treated, inhibition, significance) (Carcinogen: 7,12-DIMETHYLBENZ[A]ANTHRACENE, 57-97-6, Dose [Inhibitor]: 3 MG IN 0.2 ML ACETONE:ETHANOL:WATER (2:1:1, V/V) 1 HR AFTER EACH PROMOTER DOSE FOR 20 WK (STUDY DURATION: 20 WK), Route [Inhibitor]: DERMAL, Species: MOUSE, Strain/Sex: CD-1/FEMALE, Target Tissue: Type of Lesion: SKIN: PAPILLOMA, Dose [Carcinogen]: 0.2 UMOL IN 0.2 ML ACETONE ONCE, Promoter: 12-O-TETRADECANOYLPHORBOL-13-ACETATE, 16561-29-8): 68%, 47%, 31%, not calculated
- tumour outcome (control, treated, inhibition, significance) (Carcinogen: 7,12-DIMETHYLBENZ[A]ANTHRACENE, 57-97-6, Dose [Inhibitor]: 5 MG, 2 HR PRIOR TO EACH BIWEEKLY PROMOTER DOSE FOR 18 WK (STUDY DURATION: 18 WK), Route [Inhibitor]: INTRAPERITONEAL, Species: MOUSE, Strain/Sex: SENCAR/FEMALE, Target Tissue: Type of Lesion: SKIN: PAPILLOMA, Dose [Carcinogen]: 10 NMOL AT 7 WK OF AGE ONCE 18 WK, Promoter: 12-O-TETRADECANOYLPHORBOL-13-ACETATE, 16561-29-8): 92%, 77%, 16%, not calculated
- tumour outcome (control, treated, inhibition, significance) (Carcinogen: 7,12-DIMETHYLBENZ[A]ANTHRACENE, 57-97-6, Dose [Inhibitor]: 6 MG IN 0.9% NACL 1 HR AFTER EACH PROMOTER DOSE (STUDY DURATION: 20 WK), Route [Inhibitor]: INTRAPERITONEAL, Species: MOUSE, Strain/Sex: CD-1/FEMALE, Target Tissue: Type of Lesion: SKIN: PAPILLOMA, Dose [Carcinogen]: 0.2 UMOL IN 0.2 ML ACETONE ONCE, Promoter: 12-O-TETRADECANOYLPHORBOL-13-ACETATE, 16561-29-8): 83%, 63%, 24%, not calculated
- tumour outcome (control, treated, inhibition, significance) (Carcinogen: 7,12-DIMETHYLBENZ[A]ANTHRACENE, 57-97-6, Dose [Inhibitor]: 18 MG IN 0.9% NACL 1 HR AFTER EACH PROMOTER DOSE (STUDY DURATION: 20 WK), Route [Inhibitor]: INTRAPERITONEAL, Species: MOUSE, Strain/Sex: CD-1/FEMALE, Target Tissue: Type of Lesion: SKIN: PAPILLOMA, Dose [Carcinogen]: 0.2 UMOL IN 0.2 ML ACETONE ONCE, Promoter: 12-O-TETRADECANOYLPHORBOL-13-ACETATE, 16561-29-8): 83%, 60%, 28%, not calculated
- tumour outcome (control, treated, inhibition, significance) (Carcinogen: 7,12-DIMETHYLBENZ[A]ANTHRACENE, 57-97-6, Dose [Inhibitor]: 20 MG 2/WK OR 16 WK TOGETHER WITH EACH MEZEREIN TREATMENT BEGINNING 3 WK POST CARCINOGEN DOSE (STUDY DURATION: 18 WK), Route [Inhibitor]: INTRAPERITONEAL, Species: MOUSE, Strain/Sex: SENCAR/FEMALE, Target Tissue: Type of Lesion: SKIN: PAPILLOMA, Dose [Carcinogen]: 10 NMOL ONCE FOLLOWED ONE WK LATER BY PROMOTER, Promoter: 12-O-TETRADECANOYLPHORBOL-13-ACETATE, 16561-29-8, MEZERIN, 34807-41-5, Promoter: 12-O-TETRADECANOYLPHORBOL-13-ACETATE, 16561-29-8, MEZERIN, 34807-41-5): 78%, 45%, 42%, not calculated
- tumour outcome (control, treated, inhibition, significance) (Carcinogen: 7,12-DIMETHYLBENZ[A]ANTHRACENE, 57-97-6, Dose [Inhibitor]: 20 MG 2/WK TOGETHER WITH EACH PROMOTER TREATMENT BEGINNING 1 WK POST CARCINOGEN DOSE (STUDY DURATION: 18 WK), Route [Inhibitor]: INTRAPERITONEAL, Species: MOUSE, Strain/Sex: SENCAR/FEMALE, Target Tissue: Type of Lesion: SKIN: PAPILLOMA, Dose [Carcinogen]: 10 NMOL ONCE, Promoter: 12-O-TETRADECANOYLPHORBOL-13-ACETATE, 16561-29-8, MEZERIN, 34807-41-5, Promoter: 12-O-TETRADECANOYLPHORBOL-13-ACETATE, 16561-29-8, MEZERIN, 34807-41-5): 78%, 78%, 0%, not significant
- tumour outcome (control, treated, inhibition, significance) (Carcinogen: 7,12-DIMETHYLBENZ[A]ANTHRACENE, 57-97-6, Dose [Inhibitor]: 20 MG 2 HR PRIOR TO EACH BIWEEKLY PROMOTER DOSE FOR 18 WK (STUDY DURATION: 18 WK), Route [Inhibitor]: INTRAPERITONEAL, Species: MOUSE, Strain/Sex: SENCAR/FEMALE, Target Tissue: Type of Lesion: SKIN: PAPILLOMA, Dose [Carcinogen]: 10 NMOL ONCE AT 7 WK OF AGE, Promoter: 12-O-TETRADECANOYLPHORBOL-13-ACETATE, 16561-29-8): 92%, 84%, 9%, not calculated
- tumour outcome (control, treated, inhibition, significance) (Carcinogen: BETA IRRADIATION, Dose [Inhibitor]: 0, 1% IN DRINKING WATER DURING IRRADIATION EXPOSURE (STUDY DURATION: 950 D), Route [Inhibitor]: ORAL, Species: MOUSE, Strain/Sex: ICR/FEMALE, Target Tissue: Type of Lesion: SKIN: TUMOR, Dose [Carcinogen]: 3 GY/MIN 3/WK UNTIL EMERGENCE OF TUMORS, Promoter: NONE USED): 100%, 100%, 0%, not significant
